In brackets after ≈: the same amount, converted by molar mass. Read-outs that look alike come from different tables or passages of the source.
Tests used:
Type in all cases: cell-based
[1] = tested on: Phytophthora capsici (Pc); assay: In vitro pathogen growth inhibition assay, Pc; conditions: 48 h
Outline: (§1)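 Spores in 17% V8 liquid medium, or 1.5 mm Rs mycelial plugs in ¼ PDB, incubated with compound; final concentration checked by OD600 for precipitation. OD readings at 24 and 48 h, blank-subtracted, plus visual ratings; value is concentration giving ≥90% growth inhibition.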

Septoria tritici (St) = assay: In vitro pathogen growth inhibition assay, St; conditions: Zymoseptoria tritici, 48 h
Outline: as §1

Diplodia maydis (Dm) = assay: In vitro pathogen growth inhibition assay, Dm; conditions: Stenocarpella maydis, 48 h
Outline: as §1

[2] = tested on: Fusarium moniliforme (Fm); assay: In vitro pathogen growth inhibition assay, Fm; conditions: Fusarium verticillioides
Outline: as §1

Botrtyis cinerea (Bc) = assay: In vitro pathogen growth inhibition assay, Bc; conditions: 48 h
Outline: as §1

[3] = tested on: Collectotrichum graminicola (Cg); assay: In vitro pathogen growth inhibition assay, Cg; conditions: 48 h
Outline: as §1

[4] = tested on: Fusarium virguliforme (Fv); assay: In vitro pathogen growth inhibition assay, Fv
Outline: as §1

Rhizoctonia solani (Rs) = assay: In vitro pathogen growth inhibition assay, Rs (mycelial plugs); conditions: Rhizoctonia solani, 48 h, mycelial plugs
Outline: as §1

[5] = ≥90% growth inhibition, 48 hours, vs 2% DMSO control, read-out: Compound Concentration (ppm) sufficient for ≥90% inhibition of Pc
[6] = ≥90% growth inhibition, 48 hours, vs 2% DMSO control, read-out: Compound Concentration (ppm) sufficient for ≥90% inhibition of St
[7] = ≥90% growth inhibition, 48 hours, vs 2% DMSO control, read-out: Compound Concentration (ppm) sufficient for ≥90% inhibition of Dm
[8] = ≥90% growth inhibition, 48 hours, vs 2% DMSO control, read-out: Compound Concentration (ppm) sufficient for ≥90% inhibition of Fm
[9] = ≥90% growth inhibition, 48 hours, vs 2% DMSO control, read-out: Compound Concentration (ppm) sufficient for ≥90% inhibition of Bc
[10] = ≥90% growth inhibition, 48 hours, vs 2% DMSO control, read-out: Compound Concentration (ppm) sufficient for ≥90% inhibition of Cg
[11] = ≥90% growth inhibition, 48 hours, vs 2% DMSO control, read-out: Compound Concentration (ppm) sufficient for ≥90% inhibition of Fv
[12] = ≥90% growth inhibition, 48 hours, vs 2% DMSO control, read-out: Compound Concentration (ppm) sufficient for ≥90% inhibition of Rs
[13] = ≥90% inhibition, 48 hours vs 2% DMSO control, read-out: Compound Concentration (ppm) sufficient for ≥90% inhibition of growth, Pc
[14] = ≥90% inhibition, 48 hours vs 2% DMSO control, read-out: Compound Concentration (ppm) sufficient for ≥90% inhibition of growth, St
[15] = ≥90% inhibition, 48 hours vs 2% DMSO control, read-out: Compound Concentration (ppm) sufficient for ≥90% inhibition of growth, Dm
[16] = ≥90% inhibition, 48 hours vs 2% DMSO control, read-out: Compound Concentration (ppm) sufficient for ≥90% inhibition of growth, Fm
[17] = ≥90% inhibition, 48 hours vs 2% DMSO control, read-out: Compound Concentration (ppm) sufficient for ≥90% inhibition of growth, Bc
[18] = ≥90% inhibition, 48 hours vs 2% DMSO control, read-out: Compound Concentration (ppm) sufficient for ≥90% inhibition of growth, Cg
[19] = ≥90% inhibition, 48 hours vs 2% DMSO control, read-out: Compound Concentration (ppm) sufficient for ≥90% inhibition of growth, Fv
[20] = ≥90% inhibition, 48 hours vs 2% DMSO control, read-out: Compound Concentration (ppm) sufficient for ≥90% inhibition of growth, Rs

SMILES | IC90 [1, 5] [µg/mL] | IC90 (Septoria tritici (St); [6]) [µg/mL] | IC90 (Diplodia maydis (Dm); [7]) [µg/mL] | IC90 [2, 8] [µg/mL] | IC90 (Botrtyis cinerea (Bc); [9]) [µg/mL] | IC90 [3, 10] [µg/mL] | IC90 [4, 11] [µg/mL] | IC90 (Rhizoctonia solani (Rs); [12]) [µg/mL] | IC90 [1, 13] [µg/mL] | IC90 (Septoria tritici (St); [14]) [µg/mL] | IC90 (Diplodia maydis (Dm); [15]) [µg/mL] | IC90 [2, 16] [µg/mL] | IC90 (Botrtyis cinerea (Bc); [17]) [µg/mL] | IC90 [3, 18] [µg/mL] | IC90 [4, 19] [µg/mL] | IC90 (Rhizoctonia solani (Rs); [20]) [µg/mL]
CCOC(=O)c1sc2c(c1C)c(=O)n(C(C)(C)C(=O)N1CCCC1)c(=O)n2C[C@H](OCCC#N)c1cc(F)ccc1OC [Compound I-182] | > 50 | > 50 | 2 (≈ 3.25 µM) | 0.08 (≈ 0.13 µM) | 2 (≈ 3.25 µM) | 2 (≈ 3.25 µM) | 2 (≈ 3.25 µM) | 0.4 (≈ 0.651 µM) | – | – | – | – | – | – | – | –
COc1ccccc1[C@H](Cn1c(=O)n(C(C)(C)C(=O)N2CCCCC2)c(=O)c2c(C)c(-n3cccn3)sc21)OC(C)C [Compound I-047] | – | – | – | – | – | – | – | – | > 50 | > 50 | 2 (≈ 3.37 µM) | 0.08 (≈ 0.135 µM) | 0.4 (≈ 0.674 µM) | ≥ 2 | 0.4 (≈ 0.674 µM) | 2 (≈ 3.37 µM)
COc1ccc(F)cc1[C@H](Cn1c(=O)n(C(C)(C)C(=O)NCC(C)C)c(=O)c2c(C)c(-n3nccn3)sc21)OC1CCOCC1 [Compound I-040] | – | – | – | – | – | – | – | – | > 50 | ≥ 10 | ≥ 0.4 | 0.08 (≈ 0.124 µM) | 0.4 (≈ 0.622 µM) | ≥ 0.4 | 0.4 (≈ 0.622 µM) | 2 (≈ 3.11 µM)
COc1ccc(F)cc1[C@H](Cn1c(=O)n(C(C)(C)C(=O)N2CC=CC2)c(=O)c2c(C)c(-n3cccn3)sc21)OC1CCOCC1 [Compound I-162] | – | – | – | – | – | – | – | – | > 50 | > 50 | 10 (≈ 15.7 µM) | 2 (≈ 3.14 µM) | 10 (≈ 15.7 µM) | 2 (≈ 3.14 µM) | 10 (≈ 15.7 µM) | 2 (≈ 3.14 µM)
COc1ccc(F)cc1[C@H](Cn1c(=O)n(C(C)(C)C(=O)NC(C)C)c(=O)c2c(C)c(-n3nccn3)sc21)OCC(C)(C)O [Compound I-072] | – | – | – | – | – | – | – | – | 10 (≈ 16.2 µM) | ≥ 2 | 0.4 (≈ 0.649 µM) | 0.08 (≈ 0.13 µM) | 2 (≈ 3.24 µM) | ≥ 0.08 | 0.4 (≈ 0.649 µM) | ≥ 0.4

Results, then the molecule that gave them:

IC90 [1, 5] [µg/mL] | IC90 (Septoria tritici (St); [6]) [µg/mL] | IC90 (Diplodia maydis (Dm); [7]) [µg/mL] | IC90 [2, 8] [µg/mL] | IC90 (Botrtyis cinerea (Bc); [9]) [µg/mL] | IC90 [3, 10] [µg/mL] | IC90 [4, 11] [µg/mL] | IC90 (Rhizoctonia solani (Rs); [12]) [µg/mL] | IC90 [1, 13] [µg/mL] | IC90 (Septoria tritici (St); [14]) [µg/mL] | IC90 (Diplodia maydis (Dm); [15]) [µg/mL] | IC90 [2, 16] [µg/mL] | IC90 (Botrtyis cinerea (Bc); [17]) [µg/mL] | IC90 [3, 18] [µg/mL] | IC90 [4, 19] [µg/mL] | IC90 (Rhizoctonia solani (Rs); [20]) [µg/mL] | SMILES
> 50 | ≥ 50 | 2 (≈ 3.46 µM) | 0.4 (≈ 0.691 µM) | 2 (≈ 3.46 µM) | 2 (≈ 3.46 µM) | 2 (≈ 3.46 µM) | 2 (≈ 3.46 µM) | – | – | – | – | – | – | – | – | COc1ccccc1[C@H](Cn1c(=O)n([C@H](C)C(=O)N(C)C(C)C)c(=O)c2c(C)c(-n3cccn3)sc21)OCCC#N [Compound I-242]
– | – | – | – | – | – | – | – | > 50 | > 50 | 2 (≈ 3.5 µM) | 0.4 (≈ 0.7 µM) | 2 (≈ 3.5 µM) | 2 (≈ 3.5 µM) | 0.4 (≈ 0.7 µM) | 2 (≈ 3.5 µM) | COc1ccc(F)cc1[C@H](Cn1c(=O)n([C@H](C)C(=O)NC(C)C)c(=O)c2c(C)c(-n3cccn3)sc21)OC(C)C [Compound I-127]
– | – | – | – | – | – | – | – | ≥ 50 | ≥ 50 | 0.4 (≈ 0.649 µM) | 0.08 (≈ 0.13 µM) | 0.4 (≈ 0.649 µM) | 0.4 (≈ 0.649 µM) | 0.4 (≈ 0.649 µM) | ≥ 0.08 | Cc1c(-n2nccn2)sc2c1c(=O)n(C(C)(C)C(=O)NC(C)C)c(=O)n2C[C@H](OC(C)C)c1cc(F)ccc1OCCO [Compound I-071]
– | – | – | – | – | – | – | – | > 50 | ≥ 50 | 2 (≈ 3.52 µM) | 0.4 (≈ 0.705 µM) | 2 (≈ 3.52 µM) | 10 (≈ 17.6 µM) | 0.4 (≈ 0.705 µM) | 50 (≈ 88.1 µM) | COc1ccccc1[C@H](Cn1c(=O)n(C(C)(C)C(=O)NC(C)C)c(=O)c2c(C)c(-n3cccn3)sc21)OC(C)C [Compound I-118]
– | – | – | – | – | – | – | – | > 50 | ≥ 50 | 2 (≈ 3.45 µM) | 0.08 (≈ 0.138 µM) | 2 (≈ 3.45 µM) | 2 (≈ 3.45 µM) | 0.4 (≈ 0.69 µM) | 0.4 (≈ 0.69 µM) | COc1ccccc1[C@H](Cn1c(=O)n(C(C)(C)C(=O)N2CCCC2)c(=O)c2c(C)c(-n3cccn3)sc21)OC(C)C [Compound I-046]
– | – | – | – | – | – | – | – | > 50 | > 50 | 10 (≈ 17.9 µM) | 0.4 (≈ 0.716 µM) | 2 (≈ 3.58 µM) | ≥ 2 | 0.4 (≈ 0.716 µM) | ≥ 2 | CNC(=O)C(C)(C)n1c(=O)c2c(C)c(-n3nccn3)sc2n(C[C@H](OC(C)C)c2cc(F)ccc2OC)c1=O [Compound I-132]
